Several values for one entry are separate records, joined by “and”; a condition that tells them apart may be missing. Equal values may be shown once.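 Cells were grown in 96-well plates and exposed to each compound for 48 hours at five concentrations; endpoints were interpolated linearly between bracketing concentrations, or set to the highest concentration if not reached. GI50 is the concentration that inhibits growth by half. TGI marks complete inhibition of growth.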 *1 amine or outer side, *2 acyl side, *3 side chain or, on linkers, in order; H or OH if unused. Where a SMILES comes first, the peptide text is derived from it. Bridges are numbered along the chain shown (N, C = ends). Roman numbers before positions name the chains, in order. [ ]: non-standard residue; d: D form. Actinocin(9to1) = Cc1c2oc3c(C)ccc(C(=O)[*:1])c3nc-2c(C(=O)[*:2])c(N)c1=O; NMeV = CN[CH](C(=O)O)C(C)C; Sar = CNCC(=O)O Where only a bound is given, the exact number is not on record here.

In the assay the test system is MDA-MB-468 breast. Nature of the assay: growth of human tumour cells (NCI), 48 h.
Turning to `Oc1[nH]c(N=C2N=c3ccccc3=N2)c2ccccc12`, the GI50 is 11.2 µM and the TGI came to 31.2 µM.
For `CCCCCCCCCCCC[N+](C)(C)Cc1ccccc1`, in that order: 0.508 µM and 4.25 µM.
The matching figures for `CCN1C(=O)N(CC)C2SC(N/N=C/c3ccccc3F)=NC21` (centres undefined): 0.296 µM and 24.7 µM.
Take `O=C1/C(=C/c2ccc(F)c(F)c2)CN(C(=O)C(Cl)Cl)C/C1=C\c1ccc(F)c(F)c1`: the GI50 was 0.158 µM and the TGI worked out at 0.352 µM.
As for `CN(C)c1ccc(C(=N)c2ccc(N(C)C)cc2)cc1`, the GI50 was 0.509 µM and 0.759 µM; the TGI is 3 µM and 3.52 µM.
As for `C[C@]12CC[C@@H]3c4ccc(O)cc4CC[C@H]3[C@@H]1CC[C@@H]2NS(=O)(=O)c1cccc(Cl)c1`, the GI50 was 1.98 µM and the TGI was determined as 8.12 µM.
For `COc1ccc(-c2nsc3c2NC(=O)CC3c2ccc3c(c2)OCCO3)cc1` (centres undefined), in that order: 0.328 µM and above 100 µM.
The matching figures for `COc1cc(-c2nn(-c3cccc(NC(=O)NCCNS(=O)(=O)c4ccc(Cl)cc4)c3)cc2-c2ccncc2)ccc1Cl`: 0.332 µM and 1.67 µM.
For `CC/C=C\C[C@H](O)C/C=C1/C(=O)C=C[C@@H]1C/C=C\CCCC(=O)OC(C)C`, in that order: 1.29 µM and 3.06 µM.
Take `Nc1ncnc2c1c(-c1ccc(Oc3ccccc3)cc1)nn2C[C@H]1SSC[C@@H]1O`: the GI50 is 0.351 µM and the TGI is 1.63 µM.
The matching figures for `COC12C=C/C(=C(/C(=O)OCCSc3ccnn3C)C(=O)CCCCCCCCC3(OC)C=C/C(=C(/C(=O)OCCSc4ccnn4C)C(=O)CCCCCCCC1)O3)O2`: 0.951 µM and 4.13 µM.
Turning to `CCC#CC[C@H](O)C/C=C1/C(=O)C=C[C@@H]1C/C=C\CCCC(=O)OC`, the GI50 was 1.23 µM and the TGI was determined as 3.98 µM.
The matching figures for `C=C(C)[C@@H]1CC[C@]2(COCCCNCCCN)CC[C@]3(C)[C@H](CC[C@@H]4[C@@]5(C)CC[C@H](OCCCN)C(C)(C)[C@@H]5CC[C@]43C)[C@@H]12`: 0.882 µM and 1.74 µM.
With `O=C1Nc2ccccc2/C1=C\c1cccc(/C=C2/C(=O)Nc3ccccc32)n1`, the GI50 is 0.336 µM and the TGI was determined as 1.38 µM.
The matching figures for `C=C1C(=O)O[C@H]2[C@H]1CC/C(Cn1cc(Cc3c[nH]c4ccccc34)nn1)=C\CC[C@@]1(C)O[C@@H]21`: 1.45 µM and 3.88 µM.
For `C=C1C(=O)O[C@H]2[C@H]1CC/C(COC(=O)c1cn(C)c3ccccc13)=C\CC[C@@]1(C)O[C@@H]21`, in that order: 0.446 µM and 1.99 µM.
`COc1cc(OC)c(/C=C/C(=O)c2ccc(Nc3ncnc4ccccc34)cc2)c(OC)c1`: the GI50 was 0.306 µM and the TGI was determined as 1.55 µM.
For the compound `CC(=O)O[C@@]12CO[C@@H]1C[C@H](O)[C@@]1(C)C(=O)[C@H](O)C3=C(C)[C@@H](OC(=O)[C@H](O)[C@@H](NC(=O)OC(C)(C)C)c4ccccc4)C[C@@](O)([C@@H](OC(=O)c4ccccc4)C12)C3(C)C` (some centres undefined), the GI50 was below 0.005 µM.
For `O=C(Nc1ccc2ncnc(Nc3ccc(Oc4cccc(F)c4)c(Cl)c3)c2c1)c1ccc(CN2CCOCC2)cc1`, the GI50 is 1.5 µM and the TGI is 6.57 µM.
For `CCN1C(=O)N(CC)C2C1NN=c1s/c(=C\c3cccs3)c(=O)n12` (centres undefined), in that order: 0.113 µM and above 100 µM.
Consider `CC(CN(C)C)S(=O)(=O)c1ccc(-c2cnc(N)c(C(=O)Nc3ccccc3)n2)cc1` (centres undefined), for which the GI50 is 4.98 µM and the TGI worked out at 20.4 µM.
For `CC(=Nc1ccccc1)C1=C(O)C(Cc2cccc(F)c2)NC1=O` (centres undefined), in that order: 0.0364 µM and 62 µM.
For `COc1ccc(C(C#N)=C2C=CC(=NO)C=C2)cc1`, in that order: 0.833 µM and 4.56 µM.
The matching figures for `CCCCCCCN(CCCCCCC)C(=N)c1ccnc2ccccc12`: 1.7 µM and 3.37 µM.
For `N#Cc1cnc2ccc(-c3cnc4n[nH]nc4c3)cc2c1N1CCc2cc(F)c(Cl)cc21`, the GI50 is 1.99 µM and the TGI was 10.7 µM.
The matching figures for `C=CCNc1nc(O)c(/C=C2\C=Nc3ncccc32)s1`: 1.92 µM and 4.13 µM.
For `CN(C)C[C@H]1CCn2c(c(C3=C(c4cn(C)c5ccccc45)C(=O)NC3=O)c3ccccc32)C1`, in that order: 3.85 µM and 7.86 µM.
The matching figures for `CC(C)(C)Nc1nc2c(OCCc3ccccc3)cccn2c1-c1ccc(Cl)cc1`: 16.9 µM and 45.3 µM.
As to `O=P(O)(O)OCC1OC(n2cnc3c(NCc4ccco4)ncnc32)C(O)C1O` (centres undefined), the GI50 was 2.27 µM and the TGI amounted to 7.66 µM.
The matching figures for `c1cc(CN2CCCNCCNCCCNCC2)ccc1CN1CCCNCCNCCCNCC1`: above 100 µM and above 100 µM.
For the compound `Cc1cc(C(=O)Nc2cc(Oc3ccc4nc(NC(=O)C5CC5)cn4n3)ccc2C)n(C)n1`, the GI50 is 5.51 µM and the TGI was above 10 µM.
The matching figures for `CN(C)C(=S)/N=c1\ssc(=S)n1Cc1cccs1`: 4.07 µM and above 100 µM.
Take `Clc1ccccc1[C@@H]1C[C@@H]2Cc3cc(Br)c4ccccc4c3N1O2`: the GI50 is 1.81 µM and the TGI worked out at 5.67 µM.
For `O=C1NCN(c2ccccc2)C12CCN(CCCC(c1ccc(F)cc1)c1ccc(F)cc1)CC2`, in that order: 1.77 µM and 4.37 µM.
For `CCCCC[C@H]1CC=C2C(=O)C=C[C@@H]2CC=CCCCC(=O)O[C@@H](CCCCC)CC=C2C(=O)C=C[C@@H]2CC=CCCCC(=O)O[C@@H](CCCCC)CC=C2C(=O)C=C[C@@H]2CC=CCCCC(=O)O1`, in that order: 0.272 µM and 0.847 µM.
For `COc1cccc(Sc2ccc([N+](=O)[O-])c3no[n+]([O-])c23)c1`, in that order: 2.42 µM and 7.61 µM.
On to `Cc1c2oc3c(C)ccc(C(=O)OC(C)C4NC(=O)C(C(C)C)N(C)C(=O)CN(C)C(=O)C5CCCN5C(=O)C(C(C)C)NC4=O)c3nc-2c(C(=O)OC(C)C2NC(=O)C(C(C)C)N(C)C(=O)CN(C)C(=O)C3CCCN3C(=O)C(C(C)C)NC2=O)c(N)c1=O` (centres undefined) (I: cyclo([Sar][NMeV]TVP) / II: cyclo([Sar][NMeV]TVP); linker I:3-II:3 via Actinocin(9to1); configuration not given here), for which the GI50 is below 0.01 µM and the TGI was determined as 0.0152 µM.
Regarding `CCN(CC)CCCOc1ccc2ncnc(Nc3ccc(Oc4cccc(C(F)(F)F)c4)c(Cl)c3)c2c1`, the GI50 was 0.879 µM and the TGI is 2.33 µM.
For the compound `c1ccc2cc(Cn3cc[n+](Cc4ccc5ccccc5c4)c3)ccc2c1`, the GI50 was 0.25 µM and the TGI is 0.849 µM.
For `COc1cccc(-n2ncc3c(N/N=C/c4ccc(C)cc4)ncnc32)c1`, in that order: above 25 µM and above 25 µM.

The values above are taken from PubChem BioAssay (NCI).
